Patent publication EP0363829A2, “Predicting sensitivity to injectable radio contrast media with histamine release test” (MILES INC., priority 1988, dated 1990)

Tests used:
[1] = design: species or system patients; settings: human, in vivo
Experimental: A clinical study was performed to test the hypothesis that sensitivity (allergy) to radio contrast media could be predicted by the results of the histamine release test described herein. Histamine release from a blood sample from patients who would later be tested with a radio contrast media was measured. The results were later compared with the occurrence of an allergic reaction to the administration of the radio contrast media.

basophils = type: cell-based, patients
Experimental: In the first step a histamine-protein conjugate is adsorbed to 94 polystyrene pegs simultaneously. This is accomplished by submerging the pegs into wells of a 96 well microtiter plate (referred to as the adsorption plate) that contain a solution of a histamine-BSA conjugate. Two microtiter wells contain only BSA and are used as negative controls. Following a one hour incubation period at room temperature, the pegs are removed and washed to remove non-adsorbed conjugate.
A second 96 well microtiter plate (referred to as the release plate) containing various dilutions of RCM or histamine is also prepared. […]
The relative concentration of the monoclonal antibody-horseradish peroxidase conjugate bound to the histamine-BSA conjugate on the polystyrene pegs is now estimated by immersing the pegs in a third microtiter plate (referred to as the chromogen plate) containing a chromogenic substrate for horseradish peroxidase, 2, 2′-azino-di-(3-ethyl-benzothiazoline)-6-sulfonic acid (ABTS®). […] Quantitative assessment of histamine release can be made if a Microtiter ELISA Reader is available. […]
The radio contrast media (RCM) to be tested as the allergen was diluted into 8 to 9 serial dilutions using Tris ACM or distilled water as diluent. […] The release plate was then ready for use. […]

With `CC(=O)Nc1c(I)c(NC(C)=O)c(I)c(C(=O)O)c1I` [Hypaque] the “patients with an allergic reaction to the injection of the radio contrast media” value [1] was “one”, the “degree of histamine release” value (basophils) was “highest degree of histamine release” and the histamine release (basophils) was “significantly more histamine release”.
